The source of these data is US6436954B1, “Benzoquinolizidine and benzoindolizidine derivatives and therapeutic uses thereof” (priority 1998, dated 2002).

One assay concerns the target T1, acetylcholinesterase (Rattus norvegicus, UniProt P37136).
T1 construct: Wistar rat brain was homogenized in 10% (w/v) of ice-cold Tris-buffered saline; from tissue; host or cells: Wistar rat brain homogenate, 10,000 g supernatant
T1 sequence (P37136 32-614): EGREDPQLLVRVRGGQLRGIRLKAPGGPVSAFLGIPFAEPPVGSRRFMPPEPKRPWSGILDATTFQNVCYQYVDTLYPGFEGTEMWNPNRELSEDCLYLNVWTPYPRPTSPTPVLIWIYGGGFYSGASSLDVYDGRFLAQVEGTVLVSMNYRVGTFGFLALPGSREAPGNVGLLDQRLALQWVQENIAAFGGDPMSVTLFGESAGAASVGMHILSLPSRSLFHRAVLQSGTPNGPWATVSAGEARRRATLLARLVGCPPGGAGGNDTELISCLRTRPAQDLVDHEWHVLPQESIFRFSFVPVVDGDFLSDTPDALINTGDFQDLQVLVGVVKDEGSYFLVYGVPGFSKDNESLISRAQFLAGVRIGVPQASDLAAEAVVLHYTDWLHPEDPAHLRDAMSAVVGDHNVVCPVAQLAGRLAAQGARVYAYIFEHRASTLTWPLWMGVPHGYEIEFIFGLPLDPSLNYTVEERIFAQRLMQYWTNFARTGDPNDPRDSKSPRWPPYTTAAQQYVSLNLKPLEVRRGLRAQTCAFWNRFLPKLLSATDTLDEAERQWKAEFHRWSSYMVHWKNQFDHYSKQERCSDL
Nature of the assay: Acetylcholinesterase activity in rat brain homogenate (Ellman spectrophotometric method). Type of assay: biochemical, Wistar rat. As to conditions: rat brain enzyme preparation. As for the experimental part:
Wistar rat brain was homogenized in 10% (w/v) of ice-cold Tris-buffered saline which comprised 10 mM Tris HCl, pH 7.4, 1 mM ethylenediaminetetraacetic acid, 0.9% (w/v) bovine serum albumin. Homogenates were centrifuged at 10,000 g for 10 minutes at 4° C. Supernatants were decanted and stored in aliquots at −70° C. until required.
Briefly, the assay was carried out at room temperature using 0.1 M phosphate buffer, pH 8.0, containing 0.075 M acetylthiocholine iodide and 0.01 M 5,5-dithio-bis-(2-nitrobenzoic acid) (DTNB). The DTNB was prepared in 0.1 M phosphate buffer, pH 7.0, which contained 0.018 M sodium bicarbonate to ensure stability. The reaction was started by the addition of 100 μg of enzyme preparation to a final assay volume of 3.2 ml, and mixed thoroughly. Progress was monitored spectrophotometrically at 412 nm for a continuous period. A blank was run in conjunction with each assay and differed from the test only in that it contained phosphate buffer in place of acetylthiocholine iodide. AchE was assayed in the presence of ethopropazine, which was prepared in ethanol. […] BCHE was measured in the presence of 10^−5 M 1,5-bis-(4-trimethylammoniophenyl)pentan-3-one dibromide (62C47), a specific acetylcholinesterase inhibitor which was added to a final concentration of 10^−5 M. All solutions were freshly prepared and protected from light. Acetylthiocholine, DTNB, 62C47 and ethopropazine were obtained from Sigma Chemical Co., St. Louis, Mo. All other reagents were of the highest grade available from routine suppliers.
Results are expressed as mM acetylthiocholine hydrolysed/100 ug protein/min in Table 1. […] To facilitate comparison between compounds requiring different solubilization vehicles, the relevant results are expressed as percent of the control value in Table 2.
(Ellman's reagent forms a yellow product with free thiols.)

The test system of assay [1] is scopolamine-impaired passive avoidance learning. The assay is described as follows: Reversal of scopolamine-induced amnesia of a passive-avoidance response. Type of assay: in vivo, Wistar rats. Conditions: mean ± SEM (n). The method, then:
(b) Reversal of Scopolamine-induced Amnesia of a Passive-avoidance Response.
Postnatal day 80 male Wistar rats (300-350 g) were obtained from the Biomedical Facility, University College, Dublin. These were housed singly in a 12 h light/dark cycle with food and water available ad libitum. Animals employed for neurobehavioral studies were maintained and handled in the test environment for 3 days prior to the commencement of studies. All experimental procedures were approved by the Review Committee of the Biomedical Facility of University College, Dublin and were carried out by individuals who held the appropriate license issued by the Ministry of Health.
Animals were trained in a one-trial, step-through, light-dark passive avoidance paradigm. The apparatus consisted of a box measuring 300 mm wide×260 mm deep×270 mm high. The front and top were transparent, allowing observation of behavior inside the apparatus. The box was divided into two compartments, separated by a central shutter which contained a small opening 50 mm wide and 75 mm high. The smaller of the compartments measured 90 mm in width and contained a low power (6 V V) illumination source—the light compartment. The large compartment measured 210 mm in width and was not illuminated. The floor of the training apparatus consisted of a grid of stainless steel bars which could deliver a remotely-controlled, scrambled shock (0.75 mA every 0.5 msec, 5 sec duration) when the animal entered the dark chamber with all four paws. The animals were tested for recall of this inhibitory stimulus prior to sacrifice by placing them into the light compartment and noting their latency to enter the dark compartment. A criterion period of 300 sec was used. The results of this protocol, after administration of saline, scopolamine, test compound, and scopolaine plus test compound, are presented in Table 3.

Where [2] appears, read: test compound 10 mg/kg + scopolamine 0.8 mg/kg.
Where [3] appears, read: test compound 10 mg/kg alone, 10 mg/kg.
The mark [4] stands for this setting: test compound 30 mg/kg + scopolamine 0.8 mg/kg.

SMILES strings stand for the structures.

Take `CN[C@@H]1c2ccccc2CN2CCCC[C@H]12` (relative stereo) [Example 9, trans-N-Methyl-1,3,4,6,11,11a-hexahydro-11-amino-2H-benzo[b]quinolizine]: the “Acetylcholinesterase activity in the presence of compound” value (shortened to “Acetylcholinesterase activity”) at acetylcholinesterase (compound concentration 10 μM) is on record as 2.00 mM substrate hydrolyzed/min/100 μg protein; on acetylcholinesterase (compound concentration 1.0 mM), 0.30 mM substrate hydrolyzed/min/100 μg protein. Also, the “passive avoidance latency, Test cpd. + scopolamine” value in assay [1] (setting [2]) is on record as 104 ± 48 (12) seconds; in assay [1] (setting [4]), 258 ± 156 (5) seconds; in assay [1] (test compound 45 mg/kg + scopolamine 0.8 mg/kg), 322 ± 112 (8) seconds. For the same compound, the “passive avoidance latency, Test cpd. alone” value is 459 ± 53 (12) seconds in assay [1] (setting [3]), 529 ± 78 (6) seconds in assay [1] (test compound 30 mg/kg alone) and 340 ± 146 (5) seconds in assay [1] (test compound 45 mg/kg alone).
As for `CN[C@@H]1c2ccccc2CN2CCCC[C@H]12` (relative stereo) [Example 9a, trans-N-Methyl-1,3,4,6,11,11a-hexahydro-11-amino-2H-benzo[b]quinolizine], in assay [1] (setting [2]), the “passive avoidance latency, Test cpd. + scopolamine” value is listed as 216 ± 260 (2) seconds. Moreover, the “passive avoidance latency, Test cpd. alone” value in assay [1] (setting [3]) was 328 ± 177 (3) seconds.
`CN[C@@H]1c2cc(OC)ccc2CN2CCCC[C@H]12` (relative stereo) [Example 10, trans-N-Methyl-9-methoxy-1,3,4,6,11,11a-hexahydro11-amino-2H-benzo[b]quinolizine]: the “passive avoidance latency, Test cpd. + scopolamine” value in assay [1] (setting [2]) is listed as 054 ± 20 (6) seconds. The “passive avoidance latency, Test cpd. alone” value in assay [1] (test compound 10 mg/kg alone) was 592 ± 9 (6) seconds.
As to `c1ccc(CN[C@@H]2c3ccccc3CN3CCCC[C@H]23)cc1` (relative stereo) [Example 13, trans-N-Benzyl-1,3,4,6,11,11a-hexahydro-11-amino-2H-benzo[b]quinolizine], the “Acetylcholinesterase activity” value is recorded as 2.30 mM substrate hydrolyzed/min/100 μg protein on acetylcholinesterase (compound concentration 100 nM), 1.90 mM substrate hydrolyzed/min/100 μg protein at acetylcholinesterase (compound concentration 10 μM) and 0.20 mM substrate hydrolyzed/min/100 μg protein on acetylcholinesterase (compound concentration 1.0 mM). For the same compound, in assay [1] (setting [2]), the “passive avoidance latency, Test cpd. + scopolamine” value is reported as 048 ± 14 (5) seconds. Further, in assay [1] (test compound 10 mg/kg alone), the “passive avoidance latency, Test cpd. alone” value is reported as 410 ± 115 (6) seconds.
Consider `COc1ccc2c(c1)[C@@H](NCc1ccccc1)[C@H]1CCCCN1C2` (relative stereo) [Example 14, trans-N-Benzyl-9-methoxy-1,3,4,6,11,11a-hexahydro-11-amino-2H benzo[b]quinolizine], for which the “passive avoidance latency, Test cpd. + scopolamine” value in assay [1] (setting [4]) is on record as 211 ± 238 (3) seconds.
With `N[C@@H]1c2ccccc2CN2CCCC[C@H]12` (relative stereo) [Example 15, trans-1,3,4,6,11,11a-Hexahydro-11-amino-2H-benzo[b]quinolizine], the “Acetylcholinesterase activity” value at acetylcholinesterase (compound concentration 100 nM) is listed as 2.20 mM substrate hydrolyzed/min/100 μg protein; on acetylcholinesterase (compound concentration 10 μM), 2.00 mM substrate hydrolyzed/min/100 μg protein; at acetylcholinesterase (compound concentration 1.0 mM) it was 0.20 mM substrate hydrolyzed/min/100 μg protein. The “passive avoidance latency, Test cpd. + scopolamine” value in assay [1] (setting [2]) is reported as 148 ± 101 (5) seconds; in assay [1] (setting [4]), 132 ± 103 (6) seconds. Moreover, the “passive avoidance latency, Test cpd. alone” value in assay [1] (test compound 10 mg/kg alone) is 292 ± 92 (6) seconds; in assay [1] (test compound 30 mg/kg alone), 188 ± 102 (6) seconds.
`CN[C@@H]1c2ccccc2CN2CCCC[C@@H]12` (relative stereo) [Example 17, cis-N-methyl-1,3,4,6,11,11a-hexahydro-2H-benzo[b]quinolizidin-11-amine]: the “Acetylcholinesterase activity” value at acetylcholinesterase (compound concentration 100 nM) was 2.00 mM substrate hydrolyzed/min/100 μg protein; at acetylcholinesterase (compound concentration 10 μM), 1.90 mM substrate hydrolyzed/min/100 μg protein; on acetylcholinesterase (compound concentration 1.0 mM), 0.80 mM substrate hydrolyzed/min/100 μg protein.
For `O[C@@H]1c2ccccc2CN2CCCC[C@@H]12` (relative stereo) [Example 18a, cis-1,3,4,6,11,11a-hexahydro-2H-benzo[b]quinolizidin-11-ol] the same measures were 2.30 mM substrate hydrolyzed/min/100 μg protein, 2.10 mM substrate hydrolyzed/min/100 μg protein and 1.70 mM substrate hydrolyzed/min/100 μg protein.
In the case of `O[C@@H]1c2ccccc2CN2CCCC[C@H]12` (relative stereo) [Example 18b, trans-1,3,4,6,11,11a-hexahydro-2H-benzo[b]quinolizidin-11-ol], the results for the “Acetylcholinesterase activity” value on acetylcholinesterase (compound concentration 100 nM), on acetylcholinesterase (compound concentration 10 μM) and on acetylcholinesterase (compound concentration 1.0 mM) were 2.50 mM substrate hydrolyzed/min/100 μg protein, 1.90 mM substrate hydrolyzed/min/100 μg protein and 1.00 mM substrate hydrolyzed/min/100 μg protein, respectively.
For `CC(=O)O[C@@H]1c2ccccc2CN2CCCC[C@@H]12` (relative stereo) [Example 19, O-acetyl-cis-1,3,4,6,11,11a-hexahydro-2H-benzo[b]quinolizidin-11-ol] the same measures were 2.20 mM substrate hydrolyzed/min/100 μg protein, 1.90 mM substrate hydrolyzed/min/100 μg protein and 0.70 mM substrate hydrolyzed/min/100 μg protein.
For `CC(=O)O[C@@H]1c2ccccc2CN2CCCC[C@H]12` (relative stereo) [Example 20, O-acetyl-trans-1,3,4,6,11,11a-hexahydro-2H-benzo[b]quinolizidin-11-ol] the same measures were 2.10 mM substrate hydrolyzed/min/100 μg protein, 1.40 mM substrate hydrolyzed/min/100 μg protein and 0.30 mM substrate hydrolyzed/min/100 μg protein.
With `CN[C@@H]1c2ccccc2CN2C(=O)CC[C@@H]12` (relative stereo) [Example 26b, cis-10Methylamino-1,2,3,5,10,10a-hexahydropyrrolo[1,2b]isoquinolin-3-one], the “passive avoidance latency, Test cpd. + scopolamine” value in assay [1] (setting [4]) is on record as 182 ± 163 (4) seconds. In addition, the “passive avoidance latency, Test cpd. alone” value in assay [1] (test compound 30 mg/kg alone) was 600 (3) seconds.
Turning to `CN[C@@H]1c2ccccc2CN2CCC[C@@H]12` (relative stereo) [Example 34a, cis-10-methylamino-1,2,3,5,10,10a-hexahydropyrrolo[1,2-b]isoquinoline], in assay [1] (setting [4]), the “passive avoidance latency, Test cpd. + scopolamine” value is recorded as 534 ± 76 (3) seconds. Further, the “passive avoidance latency, Test cpd. alone” value in assay [1] (test compound 30 mg/kg alone) was 559 ± 50 (3) seconds.
